Test results taken from the supplement of paper PMC10307832.

Columns and labels:
Assay in all cases: relative viability (nuclei count vs DMSO), 5 days (fraction); higher = more cells survive
NCI-H1993 = tested on: NCI-H1993
Summary of the method: (§1)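 Lung cancer cell lines were seeded in 1536-well plates and dosed by pin tool the next day, with either a single drug or a fixed anchor-drug dose combined with five library-drug doses (not always all listed) spaced in √10 steps. Five days later, one step fixed the cells and stained their nuclei (final 0.05% Triton X-100, 1% formaldehyde, 1 ug/ml Hoechst), and nuclei were counted on 4× images. Relative viability is the nuclei count in treated wells divided by the count in vehicle wells, and each value is the median of duplicate plates.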

SK-LU-1 = tested on: SK-LU-1
Summary of the method: as §1

EPLC-272H = tested on: EPLC-272H
Summary of the method: as §1

NCI-H1563 = tested on: NCI-H1563
Summary of the method: as §1

LXF-289 = tested on: LXF-289
Summary of the method: as §1

NCI-H2126 = tested on: NCI-H2126
Summary of the method: as §1

NCI-H2023 = tested on: NCI-H2023
Summary of the method: as §1

NCI-H1915 = tested on: NCI-H1915
Summary of the method: as §1

SW 1573 = tested on: SW 1573
Summary of the method: as §1

PC-14 = tested on: PC-14
Summary of the method: as §1

NCI-H322M = tested on: NCI-H322M
Summary of the method: as §1

SMILES: COc1cc2nccc(Oc3ccc(NC(=O)Nc4cc(C)on4)c(Cl)c3)c2cc1OC [Tivozanib] + CCNC(=O)c1noc(-c2cc(C(C)C)c(O)cc2O)c1-c1ccc(CN2CCOCC2)cc1 [Luminespib] (partner 0.01 µM)
- relative viability (NCI-H1993; first compound 0.01581 µM): 0.741
- relative viability (NCI-H1993; first compound 0.05 µM): 0.955
- relative viability (NCI-H1993; first compound 0.1581 µM): 0.753
- relative viability (NCI-H1993; first compound 0.5 µM): 0.825
- relative viability (SK-LU-1; first compound 0.005 µM): 0.197
- relative viability (SK-LU-1; first compound 0.01581 µM): 0.211
- relative viability (SK-LU-1; first compound 0.05 µM): 0.201
- relative viability (SK-LU-1; first compound 0.1581 µM): 0.184
- relative viability (SK-LU-1; first compound 0.5 µM): 0.207
- relative viability (EPLC-272H; first compound 0.005 µM): 0.24
- relative viability (EPLC-272H; first compound 0.01581 µM): 0.383
- relative viability (EPLC-272H; first compound 0.05 µM): 0.34
- relative viability (EPLC-272H; first compound 0.1581 µM): 0.242
- relative viability (EPLC-272H; first compound 0.5 µM): 0.443
- relative viability (NCI-H1563; first compound 0.005 µM): 0.45
- relative viability (NCI-H1563; first compound 0.01581 µM): 0.539
- relative viability (NCI-H1563; first compound 0.05 µM): 0.541
- relative viability (NCI-H1563; first compound 0.1581 µM): 0.52
- relative viability (NCI-H1563; first compound 0.5 µM): 0.472
- relative viability (LXF-289; first compound 0.005 µM): 0.582
- relative viability (LXF-289; first compound 0.01581 µM): 0.611
- relative viability (LXF-289; first compound 0.05 µM): 0.641
- relative viability (LXF-289; first compound 0.1581 µM): 0.689
- relative viability (LXF-289; first compound 0.5 µM): 0.773
- relative viability (NCI-H2126; first compound 0.005 µM): 0.823
- relative viability (NCI-H2126; first compound 0.01581 µM): 0.964
- relative viability (NCI-H2126; first compound 0.05 µM): 0.875
- relative viability (NCI-H2126; first compound 0.1581 µM): 0.697
- relative viability (NCI-H2126; first compound 0.5 µM): 0.855
- relative viability (NCI-H2023; first compound 0.005 µM): 0.664
- relative viability (NCI-H2023; first compound 0.01581 µM): 0.698
- relative viability (NCI-H2023; first compound 0.05 µM): 0.681
- relative viability (NCI-H2023; first compound 0.1581 µM): 0.748
- relative viability (NCI-H2023; first compound 0.5 µM): 0.763
- relative viability (NCI-H1915; first compound 0.005 µM): 0.719
- relative viability (NCI-H1915; first compound 0.01581 µM): 0.855
- relative viability (NCI-H1915; first compound 0.05 µM): 0.848
- relative viability (NCI-H1915; first compound 0.1581 µM): 0.799
- relative viability (NCI-H1915; first compound 0.5 µM): 0.8
- relative viability (SW 1573; first compound 0.005 µM): 0.644
- relative viability (SW 1573; first compound 0.01581 µM): 0.224
- relative viability (SW 1573; first compound 0.05 µM): 0.248
- relative viability (SW 1573; first compound 0.1581 µM): 0.226
- relative viability (SW 1573; first compound 0.5 µM): 0.343
- relative viability (PC-14; first compound 0.005 µM): 0.115
- relative viability (PC-14; first compound 0.01581 µM): 0.139
- relative viability (PC-14; first compound 0.05 µM): 0.187
- relative viability (PC-14; first compound 0.1581 µM): 0.15
- relative viability (PC-14; first compound 0.5 µM): 0.139
- relative viability (NCI-H322M; first compound 0.005 µM): 0.797
- relative viability (NCI-H322M; first compound 0.01581 µM): 0.882
- relative viability (NCI-H322M; first compound 0.05 µM): 0.958
- relative viability (NCI-H322M; first compound 0.1581 µM): 0.694
- relative viability (NCI-H322M; first compound 0.5 µM): 0.965
